The results in this text go back to patent US12234288B2, “Immunogenic arginase 2 polypeptides” (IO Biotech ApS, priority 2018, dated 2025).

“Also recorded” adds a separate entry of the source.

The subject of experiment [1] is PBMCs from healthy donors and cancer patients. The experiment is described as follows: IFNγ ELISPOT of PBMCs pre-stimulated one week in vitro with peptide and low-dose IL-2. The note with it: for IFNγ ELISPOT response: ARG2 peptide library screen, PBMCs from 6 healthy donors, FIG. 3. Format: cell-based, human. How it is done:
For in vitro ELISPOT, PBMCs from cancer patients and healthy donors were pulsed with 20 μM of […] (or with no peptide as a control) and 120 U/ml IL-2 in 24-well plates for 7 days before being used in an ELISPOT assay. The cells were placed in 96-well nitrocellulose ELISPOT plates (MultiScreen MAIP N45; Millipore) pre-coated with IFNγ capture antibody (Mabtech). Arginase peptides added to a final concentration of 5 μM and plates incubated at 37° C. for 14-16 hours. After the incubation the cells were washed off and secondary biotinylated Ab (Mabtech, cat. 3420-{6-1000) was added for 2 hours at room temperature. Unbound secondary antibody was washed off and streptavidin conjugated alkaline phosphatase (AP) (Mabtech, cat. 3310-10) was added for 1 hour at room temperature. Unbound conjugated enzyme was washed off and the assay was developed by adding BCIP/NBT substrate (Mabtech, cat. 3650-10). Developed ELISPOT plates were analyzed on CTL ImmunoSpot S6 Ultimate-V analyzer using Immunospot software v5.1. Responses were reported as the difference between average numbers of spots in wells stimulated with arginase2 and wells without added peptide.
To test whether these peptides could be used to identify Arginase2 responses, PBMCs from 12 healthy donors and one cancer patients were screened for responses in IFNγ ELISPOT. PBMCs were stimulated with Arginase2 peptides and low dose IL-2 for 1 week prior to ELISPOT.
The entire arginase2 protein sequence was divided into overlapping 20-amino-acid-long peptides (with a final peptide of 24 amino acids), generating a library of 34 peptides covering the whole sequence (SEQ ID NOs 1-34)). Each peptide in the library overlapped with the first 10 amino acids of the following peptide. Using this arginase2 peptide library and the IFNγ ELISPOT assay, we next screened PBMCs from 6 healthy donors for spontaneous responses. The PBMCs were stimulated for one week with a pool of 3-4 adjacent 20-mer arginase2 library peptides and low-dose IL-2 (120 U/mL). They were then set up for an IFNγ ELISPOT assay to screen for responses against each 20-mer peptide separately.
PBMCs from two healthy donors were stimulated for one week with a single peptide and low-dose IL-2 (120 U/mL) before IFNy ELISPOTassay to validate the responses observed in the library screen.
PBMCs from […] were stimulated for one week with a single peptide and low-dose IL-2 (120 U/mL) before IFNy ELISPOTassay to validate the responses observed in the library screen. ARG2_1, ARG2_5, ARG2_13, ARG2_18 and ARG2_22 were tested in this validation.
ARG2_1 was used to screen for responses in 8 melanoma patients (AA07-AA31), 4 prostate cancer patients (UR07-27) and 13 healthy donors. PBMCs from each were stimulated for one week with a single peptide and low-dose IL-2 (120 U/mL) before IFNy ELISPOT assay.
PBMCs from healthy donors or cancer patients were stimulated with 10 μM of ARG2-derived peptides in vitro to enhance assay sensitivity. On day 2, IL-2 was added to a total of 120 U/ml IL-2 (Novartis). After 7 days, 4-6×10^5 PBMCs were placed at the bottom of an ELISPOT plate pre-coated with IFNy capture antibody (Mabtech). PBMCs from each donor or patient were set up in triplicates or quadruplicates for peptide (5 μM ARG2-derived peptide) and control stimulations. Cells were incubated in ELISPOT plates in the presence of an antigen for 14-16 hrs after which they were washed off and secondary biotinylated antibody (Mabtech) was added. After two hour incubation the secondary antibody was washed off before addition of streptavidin conjugated alkaline phosphatase (Mabtech) for 1 hr. Next, unbound enzyme was washed off and the assay was developed by adding BCIP/NBT subtrate (Mabtech). Developed ELISPOT plates were analyzed on CTL Immunospot S6 Ultimate-V analyzer with ImmunoSpot software, version 5.1. […]

Experiment [2] relates to PBMCs (CD4+ and CD8+ T cells). The experiment is described as follows: Intracellular cytokine staining (IFNγ, TNFα) of peptide-stimulated PBMCs by flow cytometry. The class given is cell-based, human. Conditions: for double positive (DP) CD4+ cells: FIG. 6; for intracellular cytokine staining for IFNy and TNFα production: healthy donors and cancer patients with solid tumors, Example 2, FIG. 14B/15D. How it is done:
Intracellular staining of cell cultures was performed after PBMCs were stimulated with arginase-derived peptides (or incubated with no peptide as a control) for 5 hours in the presence of BD GolgiPlug™ (added after the first hour of peptide stimulation). Stimulated cells were stained with fluorescently labeled antibodies for surface markers (CD3, CD4, CD8) and thereafter permeabilized by using Fixation/Permeabilization and Permeabilization Buffer (eBioscience, cat. 00-{5123-43), according to manufacturer's instructions. Permeabilized cells were then stained with fluorochrome-labeled antibodies for IFNγ and TNFα. Flow cytometry analysis was performed on a FACSCanto™ II (BD Biosciences). Antibodies used: IFNγ-APC (cat.341117), TNFα-[…] BV421 (cat.562783), CD4-FITC (cat.347413), CD8-PerCP (cat.345774), CD3-APC-H7 (cat. 560275) (all from BD Biosciences), dead cells stain-FVS510 (564406, BD Biosciences) according to manufacturer's instructions.
Intracellular staining of cell cultures was performed on PBMCs after one week of ARG2-derived peptide stimulation in vitro. For the assay, 9×10^5 PBMCs were re-stimulated with ARG2-derived peptides (or incubated with no peptide as a control) for 5 hours in the presence of BD GolgiPlug™ (added after the first hour of peptide stimulation). Stimulated cells were stained with fluorescently labeled antibodies for surface markers (CD3, CD4, CD8) and thereafter permeabilized by using Fixation/Permeabilization and Permeabilization Buffer (eBioscience, cat. 00-{5123-43), according to manufacturer's instructions. Permeabilized cells were then stained with fluorochrome-labeled antibodies for IFNγ and TNFα. Flow cytometry analysis was performed on a FACSCanto™ II (BD Biosciences). Antibodies used: IFNγ-APC, TNFα-BV421, CD4-PerCP, CD8-FITC, CD3-APC-H7, CD4-FITC, CD8-PerCP, and dead cells stain-FVS510 (all from BD Biosciences) according to manufacturer's instructions. For intracellular cytokine staining to detect cytokine production of ARG2-specific T cells in response to target cells, 5×10^5 ARG2 specific cells were incubated with 2.5×10^5 target cells for 5 hours with GolgiPlug™ added after the first hour.
(In general: In flow cytometry, cells or beads pass a laser one at a time.)

On to “LQTRVHSILKKSVHSVAVIG (listed as Homo sapiens) [ARG2_1, polypeptide derived from human Arginase2, aa11-30]”, for which, in experiment [1] (8 melanoma patients, 4 prostate cancer patients and 13 healthy donors (15 out of 25), FIG. 8), the “donors with significant IFNy ELISPOT responses” value is given as 60%. In addition, the “screened donors with significant IFNy ELISPOT responses” value in experiment [1] (33 HDs and 19 cancer patients with solid tumors, FIG. 14A) was “around 75%”. The “IFNγ ELISPOT response” value in experiment [1] (listed as ARG2-1) is “highest and most frequent responses”; in experiment [1] (listed as Arg2_1), “highest responses”. Further, in experiment [1] (PBMCs from patients diagnosed with AML, FIG. 14A), the “AML patients with a significant IFNy ELISPOT response” value is recorded as 3 out of 9. In addition, the “IFNy ELISPOT response” value is “Strong and frequent responses; also recorded: widely recognized” in experiment [1] (healthy donors and cancer patients, FIG. 14); “Strong and prominent responses” in experiment [1] (validation of other regions, PBMCs from four healthy donors, FIG. 5); “strong and prominent responses” in experiment [1] (validation of other regions, PBMCs from four healthy donors, FIG. 5, listed as Arg2_1). Further, the “double positive (DP) CD4+ cells” value is 0.2% in experiment [2] (healthy donor Buf-M-01, IFN-gamma and TNF-alfa); 0.1% in experiment [2] (healthy donor Buf-M-02, IFN-gamma and TNF-alfa). Also, the “intracellular cytokine staining for IFNy and TNFα production” value in experiment [2] is “primarily showed CD4+ responses”. The “CD8+ T cell response in intracellular cytokine staining” value in experiment [2] (one cancer patient, FIG. 9) was “release more of IFN-gamma (y-axis) and TNF-alfa (x-axis)”. The “CD8+ DP cells” value in experiment [2] (prostate cancer patient UR12, control 0.5%, FIG. 9) was 0.9%. In experiment [2] (two healthy donors, Example 1, FIG. 6), the “CD4+ T cell response in intracellular cytokine staining” value is listed as “reacting specifically; also recorded: release both IFN-gamma (y-axis) or TNF-alfa (x-axis)”.

Consider “SLRGSLSRLLQTRVHSILKKSVHSVAVIGAPFS (listed as Homo sapiens) [A2L2, long ARG2 peptide, aa2-34, 33-mer]”, for which, in experiment [1] (6 healthy donors, not significant (p=0.0625), FIG. 15B), the “donors in which A2L2 immune responses were higher than ARG2-1 responses” value was 5 out of 6. The “IFNy ELISPOT response” value in experiment [1] (30 healthy donors and 18 cancer patients, FIG. 15) was “strong and frequent CD4+ T-cell responses”. The “donors with IFNy ELISPOT responses” value in experiment [1] (30 healthy donors and 18 cancer patients, FIG. 15C) is “about 80%”. Besides, the “IFNy ELISPOT response to long peptides” value in experiment [1] (PBMCs from 6 healthy donors stimulated once, FIG. 15A) was “strongest and most frequent immune responses”. Besides, in experiment [1] (not significant (p=0.7038), FIG. 15E), the “immune responses compared to ARG2-1 responses in the same donor” value is given as “on average higher”. Also, the “intracellular cytokine staining for IFNy and TNFα production” value in experiment [2] was “only CD4+ responses”.
